Experimental data taken from patent publication US12275745B2, “Therapeutic compounds and methods of use” (Genentech, Inc., priority 2021, dated 2025).

Legend:
[1] = biological target: TEAD1 (Homo sapiens, UniProt P28347); assay: TR-FRET (Lipid HTRF) TEAD lipid pocket probe displacement assay, TEAD1; assay type: binding; details: His-tagged TEAD1, biotinylated lipid pocket probe, 4 hours
Experimental: (§1) His-tagged TEAD proteins are pre-incubated with TEAD project compounds for 30 minutes or 4 hours at room temperature. Biotinylated lipid pocket probes are then added to the TEAD/Compound mixture and incubated for 60 minutes at room temperature. The lipid pocket probe competes with the test compound for the TEAD lipid pocket until equilibrium is reached. After 60 minutes, Europium labelled anti-His (Perkin Elmer #AD0110) and XL665 labelled streptavidin (CIS Bio 610SAXAC) are added to the TEAD/test compound/lipid pocket mixture and incubated for 30 minutes or 4 hours. TR-FRET values are then measured using an EnVision multi-label plate reader (Perkin Elmer Cat #2104-001 0A.) If the lipid pocket probe binds to TEAD as expected, a TR-FRET signal results from the proximity of anti-His Eu and XL665. If a TEAD lipid pocket binder such as binds and displaces the lipid pocket probe, the disruption of the TEAD:probe interaction results in a decrease in TR-FRET signal. The potency of compounds as TEAD lipid pocket binders is determined by IC50 value generated using a non-linear 4 parameter curve fit.

[2] = biological target: TEAD3 (Homo sapiens, UniProt Q99594); assay: TR-FRET (Lipid HTRF) TEAD lipid pocket probe displacement assay, TEAD3; assay type: binding; details: His-tagged TEAD3, biotinylated lipid pocket probe, 4 hours
[3] = biological target: TEAD2 (Homo sapiens, UniProt Q15562); assay: biochemical;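 note: TR-FRET competition assay with His-tagged TEAD protein and a biotinylated lipid pocket probe, where probe displacement by compound lowers the signal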
Experimental: as §1

[4] = biological target: TEAD4 (Homo sapiens, UniProt Q15561); assay: TR-FRET (Lipid HTRF) TEAD lipid pocket probe displacement assay, TEAD4; assay type: binding; details: His-tagged TEAD4, biotinylated lipid pocket probe, 4 hours
Chain of TEAD4 (Q15561 whole entry, species assumed): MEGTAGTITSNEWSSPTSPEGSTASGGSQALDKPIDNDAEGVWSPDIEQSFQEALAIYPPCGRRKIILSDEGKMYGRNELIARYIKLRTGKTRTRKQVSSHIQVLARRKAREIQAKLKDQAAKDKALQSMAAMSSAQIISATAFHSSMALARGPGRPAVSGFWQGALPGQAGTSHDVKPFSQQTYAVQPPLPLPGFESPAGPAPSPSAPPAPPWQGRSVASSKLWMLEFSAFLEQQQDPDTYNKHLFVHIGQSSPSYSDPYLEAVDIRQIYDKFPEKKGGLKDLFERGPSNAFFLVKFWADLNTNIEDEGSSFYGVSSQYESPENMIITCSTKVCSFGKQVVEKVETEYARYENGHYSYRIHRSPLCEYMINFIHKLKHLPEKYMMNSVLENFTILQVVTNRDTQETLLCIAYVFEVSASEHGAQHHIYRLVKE
Experimental: as §1

Chain of TEAD1 (P28347 whole entry, species assumed): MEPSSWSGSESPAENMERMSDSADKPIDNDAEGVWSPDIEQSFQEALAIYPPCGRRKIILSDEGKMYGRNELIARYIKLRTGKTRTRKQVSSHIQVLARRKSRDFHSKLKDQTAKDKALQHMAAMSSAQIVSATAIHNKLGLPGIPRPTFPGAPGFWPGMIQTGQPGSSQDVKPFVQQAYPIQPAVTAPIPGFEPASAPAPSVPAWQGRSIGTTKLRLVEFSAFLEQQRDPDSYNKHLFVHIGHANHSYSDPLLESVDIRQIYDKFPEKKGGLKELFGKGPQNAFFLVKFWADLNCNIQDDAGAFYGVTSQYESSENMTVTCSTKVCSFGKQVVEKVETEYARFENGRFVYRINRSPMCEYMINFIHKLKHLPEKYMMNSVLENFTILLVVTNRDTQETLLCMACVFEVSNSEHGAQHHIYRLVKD
Chain of TEAD3 (Q99594 whole entry, species assumed): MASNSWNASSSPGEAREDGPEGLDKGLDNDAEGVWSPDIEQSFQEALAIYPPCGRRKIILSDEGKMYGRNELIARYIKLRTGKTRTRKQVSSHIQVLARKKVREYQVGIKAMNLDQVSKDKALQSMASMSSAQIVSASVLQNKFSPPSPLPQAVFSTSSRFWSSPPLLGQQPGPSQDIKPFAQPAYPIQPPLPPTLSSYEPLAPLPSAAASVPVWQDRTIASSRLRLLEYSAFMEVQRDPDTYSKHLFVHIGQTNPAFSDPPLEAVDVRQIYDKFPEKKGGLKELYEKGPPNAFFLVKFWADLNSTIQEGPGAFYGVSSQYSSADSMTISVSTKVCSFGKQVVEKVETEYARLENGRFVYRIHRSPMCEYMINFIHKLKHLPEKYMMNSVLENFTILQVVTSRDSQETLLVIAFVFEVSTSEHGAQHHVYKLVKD
Chain of TEAD2 (Q15562 whole entry, species assumed): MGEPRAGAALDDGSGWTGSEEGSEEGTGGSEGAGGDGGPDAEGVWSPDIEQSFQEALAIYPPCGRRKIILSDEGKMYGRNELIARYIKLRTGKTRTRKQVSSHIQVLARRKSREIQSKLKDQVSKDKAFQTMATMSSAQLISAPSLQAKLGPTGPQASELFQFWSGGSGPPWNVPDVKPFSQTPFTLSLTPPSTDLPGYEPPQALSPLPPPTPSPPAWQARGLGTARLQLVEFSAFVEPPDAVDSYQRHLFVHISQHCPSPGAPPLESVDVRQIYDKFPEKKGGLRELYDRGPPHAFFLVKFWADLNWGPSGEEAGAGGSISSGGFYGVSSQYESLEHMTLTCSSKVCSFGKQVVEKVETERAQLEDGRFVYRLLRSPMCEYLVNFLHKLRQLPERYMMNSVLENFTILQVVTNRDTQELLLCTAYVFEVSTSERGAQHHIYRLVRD

| SMILES | IC50 [1] [µM] | IC50 [2] [µM] | IC50 [3] [µM] | IC50 [4] [µM] |
| --- | --- | --- | --- | --- |
| C=CC(=O)N1CC[C@@H](c2nc(-c3ccc(OC(F)(F)F)cc3)c3ncn(C)c3n2)C1 (single isomer, unassigned) [Compound 122] | 0.093 | 0.58 | 0.066 | – |
| C=CC(=O)NCc1cc(-c2ccc(OC(F)(F)F)cc2)c2ncn(C)c2c1C#C[C@@H](O)CO [Compound 75, (R)-N-((7-(3,4-dihydroxybut-1-yn-1-yl)-1-methyl-4-(4-(trifluoromethoxy)phenyl)-1H-benzo[d]imidazol-6-yl)methyl)acrylamide] | 0.009 | 0.16 | 0.013 | – |
| C/C=C/S(=O)(=O)N1CC(c2nc(-c3ccc(OC(F)(F)F)cc3)c3ncn(C)c3n2)C1 [Compound 116, (E)-9-Methyl-2-(1-(prop-1-en-1-ylsulfonyl)azetidin-3-yl)-6-(4-(trifluoromethoxy)phenyl)-9H-purine] | 0.0053 | – | 0.0087 | – |
| C=CC(=O)NCc1cc(-c2ccc(OC(F)(F)F)cc2)c2ncn(C)c2c1C#N [Compound 27, N-[[4-cyano-3-methyl-7-[4-(trifluoromethoxy)phenyl]benzimidazol-5-yl]methyl]prop-2-enamide] | – | 0.0405 | 0.015 | 0.0067 |
| C/C=C(\C)C(=O)N1CC(c2nc(-c3ccc(OC(F)(F)F)cc3)c3ncn(C)c3n2)C1 [Compound 120, (E)-2-Methyl-1-(3-(9-methyl-6-(4-(trifluoromethoxy)phenyl)-9H-purin-2-yl)azetidin-1-yl)but-2-en-1-one] | – | – | 0.84 | 0.22 |
| C=CC(=O)NCc1nc(-c2ccc(OC(F)(F)F)cc2)c2ncn(C)c2c1[C@H](O)CO (single isomer, unassigned) [Compound 70] | – | – | – | 0.26 |
| Cn1cnc2c(-c3ccc(OC(F)(F)F)cc3)nc(C3CN(C(=O)C45CC4C5)C3)nc21 (stereo not drawn) [Compound 119, Bicyclo[1.1.0]butan-1-yl(3-(9-methyl-6-(4-(trifluoromethoxy)phenyl)-9H-purin-2-yl)azetidin-1-yl)methanone] | – | – | 1.3 | 0.16 |
| C=CS(=O)(=O)NCc1cc(-c2ccc(OC(F)(F)F)cc2)c2c(c1CO)CCO2 [Compound 19, N-((4-(Hydroxymethyl)-7-(4-(trifluoromethoxy)phenyl)-2,3-dihydrobenzofuran-5-yl)methyl)ethenesulfonamide] | 0.004 | 0.008 | – | – |
| C=CC(=O)NCc1cc(-c2ccc(OC(F)(F)F)cc2)c2nccnc2c1[C@H](O)CO (single isomer, unassigned) [Compound 79] | – | 1.9 | 0.04 | – |
| C=CC(=O)N1CC(c2nc(-c3ccc(OC(F)(F)F)cc3)c3ncn(C)c3n2)C1 [Compound 62, 1-[3-[9-methyl-6-[4-(trifluoromethoxy)phenyl]purin-2-yl]azetidin-1-yl]prop-2-en-1-one] | – | – | 0.0031 | 0.002 |
| [2H]C([2H])=C([2H])C(=O)NCc1cc(-c2ccc(OC(F)(F)F)cc2)c2c(c1CO)CCO2 [Compound 20, 2,3,3-Trideuterio-N-((4-(hydroxymethyl)-7-(4-(trifluoromethoxy)phenyl)-2,3-dihydrobenzofuran-5-yl)methyl]prop-2-enamide] | – | – | 0.0235 | 0.0175 |
| O=C(CCl)NCc1nc(-c2ccc(OC(F)(F)F)cc2)c2ncsc2n1 [Compound 15, 2-chloro-N-[[7-[4-(trifluoromethoxy)phenyl]thiazolo[5,4-d]pyrimidin-5-yl]methyl]acetamide] | – | 0.07 | 0.3 | 0.005 |
| [2H]C([2H])=C([2H])C(=O)NCc1nc(-c2ccc(OC(F)(F)F)cc2)c2ncsc2n1 [Compound 101, N-((7-(4-(Trifluoromethoxy)phenyl)thiazolo[5,4-d]pyrimidin-5-yl)methyl)acrylamide-2,3,3-d3] | – | 0.216 | 0.275 | 0.0151 |
| C=CC(=O)NCc1nc(-c2ccc(OC(F)(F)F)cc2)c2ncsc2n1 [Compound 21, N-[[7-[4-(trifluoromethoxy)phenyl]thiazolo[5,4-d]pyrimidin-5-yl]methyl]prop-2-enamide] | – | 0.0727 | 0.19 | 0.0119 |
| C=CC(=O)N[C@@H](C)c1cc(-c2ccc(OC(F)(F)F)cc2)c2c(c1CO)CCO2 (single isomer, unassigned) [Compound 18] | – | – | – | 0.8 |
| Cn1cnc2c(-c3ccc(OC(F)(F)F)cc3)nc(C3CN(C(=O)C4=CCC4)C3)nc21 [Compound 115, Cyclobut-1-en-1-yl(3-(9-methyl-6-(4-(trifluoromethoxy)phenyl)-9H-purin-2-yl)azetidin-1-yl)methanone] | – | 0.009 | 0.00485 | 0.00225 |
| C=CC(=O)NCc1cc(-c2ccc(OC(F)(F)F)cc2)c2c(c1CO)CCO2 [Compound 12, N-((4-(Hydroxymethyl)-7-(4-(trifluoromethoxy)phenyl)-2,3-dihydrobenzofuran-5-yl)methyl)acrylamide] | – | – | 0.0183 | 0.0152 |
| C=CC(=O)N[C@H](C)c1cc(-c2ccc(OC(F)(F)F)cc2)c2c(c1CO)CCO2 (single isomer, unassigned) [Compound 17] | – | – | – | 5.7 |
| C=CC(=O)NCc1cc(-c2ccc(OC(F)(F)F)cc2)c2ncn(C)c2c1[C@@H](O)CO (single isomer, unassigned) [Compound 31] | – | – | – | 0.055 |
| C=C(F)C(=O)N1CC(c2nc(-c3ccc(OC(F)(F)F)cc3)c3ncn(C)c3n2)C1 [Compound 118, 2-Fluoro-1-(3-(9-methyl-6-(4-(trifluoromethoxy)phenyl)-9H-purin-2-yl)azetidin-1-yl)prop-2-en-1-one] | 0.0095 | – | 0.072 | 0.0067 |
| C=CC(=O)NCc1cc(-c2ccc(OC(F)(F)F)cc2)c2ncoc2c1[C@H]1CNC(=O)O1 (single isomer, unassigned) [Compound 111] | 0.16 | – | 0.07 | 0.29 |
| O=C(CCl)NCc1cc(-c2ccc(OC(F)(F)F)cc2)c2c(c1CO)CCO2 [Compound 25, 2-Chloro-N-((4-(hydroxymethyl)-7-(4-(trifluoromethoxy)phenyl)-2,3-dihydrobenzofuran-5-yl)methyl)acetamide] | 0.0044 | – | 0.0039 | 0.0037 |
| C=CC(=O)NCc1nc(-c2ccc(OC(F)(F)F)cc2)c2ncn(C)c2c1[C@@H](O)CO (single isomer, unassigned) [Compound 71] | – | – | – | 0.12 |
| C=CC(=O)NCc1cc(-c2ccc(OC(F)(F)F)cc2)c2nccnc2c1[C@@H](O)CO [Compound 28, N-[[5-[(1R)-1,2-dihydroxyethyl]-8-[4-(trifluoromethoxy)phenyl]quinoxalin-6-yl]methyl]prop-2-enamide] | – | 0.39 | 0.0153 | – |
| C=CC(=O)NCc1cc(-c2ccc(OC(F)(F)F)cc2)c2ncn(C)c2c1C(N)=O [Compound 76, 3-methyl-5-[(prop-2-enoylamino)methyl]-7-[4-(trifluoromethoxy)phenyl]benzimidazole-4-carboxamide] | – | 1.3 | 0.23 | 0.26 |
| C=CC(=O)NCc1cc(-c2ccc(OC(F)(F)F)cc2)c2ncn(C)c2c1[C@H](O)CO (single isomer, unassigned) [Compound 30] | – | – | – | 0.053 |
| C=CC(=O)NCc1cc(-c2ccc(OC(F)(F)F)cc2)c2ncoc2c1[C@@H]1CNC(=O)O1 (single isomer, unassigned) [Compound 112] | 2.4 | – | 0.36 | 0.52 |
